Molecules are shown by their SMILES. Where a name gives a salt, the structure may show the parent alone.

The target of one data set is T1, human factor Xa (Homo sapiens, UniProt P00742).
T1 construct: released from the colourless chromogenic substrate by human factor Xa; purchased Roche
T1 sequence (P00742 235-488 limits assumed): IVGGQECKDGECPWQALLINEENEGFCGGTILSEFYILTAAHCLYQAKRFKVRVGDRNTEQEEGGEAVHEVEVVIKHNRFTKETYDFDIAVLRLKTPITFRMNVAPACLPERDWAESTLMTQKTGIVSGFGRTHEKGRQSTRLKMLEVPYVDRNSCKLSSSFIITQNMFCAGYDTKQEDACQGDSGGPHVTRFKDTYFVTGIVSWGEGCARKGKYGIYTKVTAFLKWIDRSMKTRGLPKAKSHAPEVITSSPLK
T1 sequence (P00742 41-179 partner limits assumed): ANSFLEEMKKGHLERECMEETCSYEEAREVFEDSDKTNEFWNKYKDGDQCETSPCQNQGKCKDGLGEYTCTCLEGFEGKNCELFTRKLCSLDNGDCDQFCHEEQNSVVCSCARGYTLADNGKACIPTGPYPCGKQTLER
The data set is described as follows: inhibition of factor Xa, enzyme-kinetic measurement with chromogenic substrate. The data set is classed as biochemical. As to conditions: substrate Chromozym X 200 μMol/l, factor Xa (Roche) 0.175 U/ml, pH 8.0, 37° C., photometric at 405 nm. An excerpt:
For example, the compounds • A=2-(5-carbamimidoyl-2-hydroxy-phenyl)-N-[3-methyl-4-(pyrrolidin-1-yl-carbonyl)-phenyl]-acetamide-hydrochloride, • B=2-(2-benzyloxy-5-carbamimidoyl-phenyl)-N-(2-ethoxycarbonyl-ethyl)-N-[3-methyl-4-(pyrrolidin-1-yl-carbonyl)-phenyl]-acetamide-hydrochloride, • C=2-(2-hydroxy-5-carbamimidoyl-phenyl)-N-(2-ethoxycarbonyl-ethyl)-N-[3-methyl-4-(pyrrolidin-1-yl-carbonyl)-phenyl]-acetamide-hydrochloride, • D=2-(2-hydroxy-5-carbamimidoyl-phenyl)-N-(2-carboxy-ethyl)-N-[3-methyl-4-(pyrrolidin-1-yl-carbonyl)-phenyl]-acetamide-hydrochloride • E=2-(5-carbamimidoyl-2-hydroxy-phenyl)-N-[3-methyl-4-(piperidin-1-yl-carbonyl)-phenyl]-acetamide-hydrochloride and • F=2-(5-carbamimidoyl-2-hydroxy-phenyl)-N-[3-methyl-4-(2-aminosulphonyl-phenyl)-phenyl]-acetamide-hydrochloride, were investigated for their effect on the inhibition of factor Xa as follows: • Method: Enzyme-kinetic measurement with chromogenic substrate. The quantity of anpnitroaniline (pNA) released from the colourless chromogenic substrate by human factor Xa is determined photometrically at 405 nm. It is proportional to the activity of the enzyme used. The inhibition of the enzyme activity by the test substance I (in relation to the solvent control) is determined at various concentrations of test substance and from this the IC50 is calculated, as the concentration which inhibits the factor Xa used by 50%. • Material: • Tris(hydroxymethyl)-aminomethane buffer (100 mmol) of and sodium chloride (150 mMol), pH 8.0 • Factor Xa (Roche), spec. activity: 10 U/0.5 ml, final concentration: 0.175 U/ml per reaction mixture • Substrate Chromozym X (Roche), final concentration: 200 μMol/l per reaction mixture • Test substance: final concentration 100, 30, 10, 3, 1, 0.3, 0.1, 0.03, 0.01, 0.003, 0.001 μMol/l
Procedure: 10 μl of a 23.5-times concentrated starting solution of the test substance or solvent (control), 175 μl of tris(hydroxymethyl)-aminomethane buffer and 25 μl of Factor Xa working solution of 1.65 U/ml are incubated for 10 minutes at 37° C. After the addition of 25 μl of Chromozym X working solution ([…]) the sample is measured in a photometer (SpectraMax 250) at 405 nm for 150 seconds at 37° C.
• 1. Determining the maximum increase (deltaOD/minutes) over 3 measuring points. • 2. Determining the % inhibition based on the solvent control. • 3. Plotting a dosage/activity curve (% inhibition vs substance concentration). • 4. Determining the IC50 by interpolating the X value (substance concentration) of the dosage/activity curve at Y=50% inhibition.
`CCOC(=O)CCN(C(=O)Cc1cc(C(=N)N)ccc1O)c1ccc(C(=O)N2CCCC2)c(C)c1` [C, 2-(2-hydroxy-5-carbamimidoyl-phenyl)-N-(2-ethoxycarbonyl-ethyl)-N-[3-methyl-4-(pyrrolidin-1-yl-carbonyl)-phenyl]-acetamide-hydrochloride]: the IC50 (commonly the midpoint of a concentration-inhibition curve) amounted to 0.12 µM.

`Cc1cc(NC(=O)Cc2cc(C(=N)N)ccc2O)ccc1C(=O)N1CCCC1` [A, 2-(5-carbamimidoyl-2-hydroxy-phenyl)-N-[3-methyl-4-(pyrrolidin-1-yl-carbonyl)-phenyl]-acetamide-hydrochloride] yielded a half-maximal inhibitory concentration (IC50) of 0.03 µM.

Regarding `Cc1cc(N(CCC(=O)O)C(=O)Cc2cc(C(=N)N)ccc2O)ccc1C(=O)N1CCCC1` [D, 2-(2-hydroxy-5-carbamimidoyl-phenyl)-N-(2-carboxy-ethyl)-N-[3-methyl-4-(pyrrolidin-1-yl-carbonyl)-phenyl]-acetamide-hydrochloride], the IC50 came out at 0.85 µM. Against the preceding compound, the IC50 is about 28-fold higher.

Compound `Cc1cc(NC(=O)Cc2cc(C(=N)N)ccc2O)ccc1C(=O)N1CCCCC1` [E, 2-(5-carbamimidoyl-2-hydroxy-phenyl)-N-[3-methyl-4-(piperidin-1-yl-carbonyl)-phenyl]-acetamide-hydrochloride] gave an IC50 of 0.085 µM.

For `CCOC(=O)CCN(C(=O)Cc1cc(C(=N)N)ccc1OCc1ccccc1)c1ccc(C(=O)N2CCCC2)c(C)c1` [B, 2-(2-benzyloxy-5-carbamimidoyl-phenyl)-N-(2-ethoxycarbonyl-ethyl)-N-[3-methyl-4-(pyrrolidin-1-yl-carbonyl)-phenyl]-acetamide-hydrochloride], 0.68 µM corresponded to half-maximal inhibition (IC50).

`Cc1cc(NC(=O)Cc2cc(C(=N)N)ccc2O)ccc1-c1ccccc1S(N)(=O)=O` [F, 2-(5-carbamimidoyl-2-hydroxy-phenyl)-N-[3-methyl-4-(2-aminosulphonyl-phenyl)-phenyl]-acetamide-hydrochloride] displayed a half-maximal inhibitory concentration (IC50) of 0.26 µM.

System in a further data set: not given
Test: not given
Conditions: not given
Turning to `Cl.N=C(N)c1cccc(C(=O)NCc2ccc(NC(=O)c3ccccc3)cc2)c1`, the melting point (usually the temperature of the solid-liquid transition) lay within 190 to 215 °C.

For `Cl.N=C(N)c1cccc(C(=O)NCc2ccc(Oc3ccncc3)cc2)c1`, the melting point is 115 °C (dec.).

`Cl.N=C(N)c1cccc(C(=O)NCc2ccc(NS(=O)(=O)c3ccccc3)cc2)c1` came in with a melting point of 266 °C.
